Measurements taken from ChEMBL document CHEMBL4813949, “Hypothemycin-Type Resorcylic Acid Lactones with Immunosuppressive Activities from a Podospora sp” (J Nat Prod, 2021).
pIC50: −log10 of the molar value.

Legend:
Splenocyte [1] = assay: Immunosuppressive activity in BALB/c mouse splenocytes assessed as inhibition of LPS-stimulated B-cell proliferation incubated for 48 hrs by MTT assay; assay type: functional, cell-based
Splenocyte [2] = assay: Cytotoxicity against BALB/c mouse splenocytes at 50 uM incubated for 48 hrs by MTT assay; assay type: cell-based
Splenocyte [3] = assay: Immunosuppressive activity in BALB/c mouse splenocytes assessed as inhibition of concanavalin A-stimulated T-cell proliferation incubated for 48 hrs by MTT assay; assay type: functional, cell-based
T-cell [4] = assay: Induction of apoptosis in ConA-induced mouse splenic T cells assessed as early apoptotic cells at 15 uM after 48 hrs by Annexin V-FITC/propidium iodide staining based flow cytometry analysis (reference value: 7.1 %); assay type: functional
T-cell [5] = assay: Induction of apoptosis in ConA-induced mouse splenic T cells assessed as late apoptotic cells at 15 uM after 48 hrs by Annexin V-FITC/propidium iodide staining based flow cytometry analysis (reference value: 0.6 %); assay type: functional
T-cell [6] = assay: Induction of apoptosis in ConA-induced mouse splenic T cells assessed as early apoptotic cells at 5 uM after 48 hrs by Annexin V-FITC/propidium iodide staining based flow cytometry analysis (reference value: 7.1 %); assay type: functional
T-cell [7] = assay: Induction of apoptosis in ConA-induced mouse splenic T cells assessed as late apoptotic cells at 1 uM after 48 hrs by Annexin V-FITC/propidium iodide staining based flow cytometry analysis (reference value: 0.6 %); assay type: functional
T-cell [8] = assay: Induction of apoptosis in ConA-induced mouse splenic T cells assessed as late apoptotic cells at 5 uM after 48 hrs by Annexin V-FITC/propidium iodide staining based flow cytometry analysis (reference value: 0.6 %); assay type: functional
T-cell [9] = assay: Induction of apoptosis in ConA-induced mouse splenic T cells assessed as early apoptotic cells at 1 uM after 48 hrs by Annexin V-FITC/propidium iodide staining based flow cytometry analysis (reference value: 7.1 %); assay type: functional
T-cell [10] = assay: Induction of apoptosis in ConA-induced mouse splenic T cells assessed as early apoptotic cells at 5 uM after 48 hrs by Annexin V-FITC/propidium iodide staining based flow cytometry analysis (reference value: 6.9 %); assay type: functional
T-cell [11] = assay: Induction of apoptosis in ConA-induced mouse splenic T cells assessed as decrease in Bcl-2 protein expression after 48 hrs by Western blotting analysis; assay type: functional, cell-based; settings: dose 5-20 µM
T-cell [12] = assay: Induction of apoptosis in ConA-induced mouse splenic T cells assessed as decrease in Bcl-xL protein expression after 48 hrs by Western blotting analysis; assay type: functional, cell-based; settings: dose 5-20 µM
T-cell [13] = assay: Induction of apoptosis in ConA-induced mouse splenic T cells assessed as decrease in Mcl-1 protein expression after 48 hrs by Western blotting analysis; assay type: functional, cell-based; settings: dose 5-20 µM
T-cell [14] = assay: Induction of apoptosis in ConA-induced mouse splenic T cells assessed as late apoptotic cells at 20 uM after 48 hrs by Annexin V-FITC/propidium iodide staining based flow cytometry analysis (reference value: 0.4 %); assay type: functional
T-cell [15] = assay: Induction of apoptosis in ConA-induced mouse splenic T cells assessed as increase in Bax protein expression after 48 hrs by Western blotting analysis; assay type: functional, cell-based; settings: dose 5-20 µM
T-cell [16] = assay: Induction of apoptosis in ConA-induced mouse splenic T cells assessed as increase in cleaved caspase 9 protein expression after 48 hrs by Western blotting analysis; assay type: functional, cell-based; settings: dose 5-20 µM
T-cell [17] = assay: Induction of apoptosis in ConA-induced mouse splenic T cells assessed as late apoptotic cells at 10 uM after 48 hrs by Annexin V-FITC/propidium iodide staining based flow cytometry analysis (reference value: 0.4 %); assay type: functional
T-cell [18] = assay: Induction of apoptosis in ConA-induced mouse splenic T cells assessed as late apoptotic cells at 5 uM after 48 hrs by Annexin V-FITC/propidium iodide staining based flow cytometry analysis (reference value: 0.4 %); assay type: functional
T-cell [19] = assay: Induction of apoptosis in ConA-induced mouse splenic T cells assessed as increase in cleaved caspase 3 protein expression after 48 hrs by Western blotting analysis; assay type: functional, cell-based; settings: dose 5-20 µM
T-cell [20] = assay: Induction of apoptosis in ConA-induced mouse splenic T cells assessed as increase in cytochrome C protein expression after 48 hrs by Western blotting analysis; assay type: functional, cell-based; settings: dose 5-20 µM
T-cell [21] = assay: Induction of apoptosis in ConA-induced mouse splenic T cells assessed as early apoptotic cells at 10 uM after 48 hrs by Annexin V-FITC/propidium iodide staining based flow cytometry analysis (reference value: 6.9 %); assay type: functional
T-cell [22] = assay: Induction of apoptosis in ConA-induced mouse splenic T cells assessed as early apoptotic cells at 20 uM after 48 hrs by Annexin V-FITC/propidium iodide staining based flow cytometry analysis (reference value: 6.9 %); assay type: functional
T-cell [23] = assay: Induction of apoptosis in ConA-induced mouse splenic T cells assessed as downregulation of JNK phosphorylation after 48 hrs by Western blotting analysis; assay type: functional, cell-based; settings: dose 5-20 µM

For `COc1cc(O)c2c(c1)/C=C/CC[C@H](O)C(=O)CCC[C@H](C)OC2=O`, the pIC50 (Splenocyte [1]) was under 4.30, the Activity (Splenocyte [2]) was “Non-Toxic” and the pIC50 (Splenocyte [3]) was under 4.30.

In the case of `COc1cc(O)c2c(c1)/C=C/C[C@H](O)[C@@H](O)C(=O)/C=C/C[C@H](C)OC2=O`, the pIC50 (Splenocyte [1]) was 4.54, the Activity (Splenocyte [2]) was “Non-Toxic” and the pIC50 (Splenocyte [3]) was 4.62.

For `COc1cc(O)c2c(c1)/C=C/C[C@H](O)[C@H](O)C(=O)/C=C/C[C@H](C)OC2=O`, the pIC50 (Splenocyte [1]) was 5.21, the Activity (Splenocyte [2]) was “Non-Toxic” and the pIC50 (Splenocyte [3]) was 5.22.

For `COc1cc(O)c2c(c1)/C=C/CCC(=O)[C@@H](O)CCC[C@H](C)OC2=O`, the pIC50 (Splenocyte [1]) was under 4.30, the Activity (Splenocyte [2]) was “Non-Toxic” and the pIC50 (Splenocyte [3]) was under 4.30.

For `COc1cc(O)c2c(c1)/C=C/CC[C@H](O)[C@H](O)CCC[C@H](C)OC2=O`, the pIC50 (Splenocyte [1]) was under 4.30, the Activity (Splenocyte [2]) was “Non-Toxic” and the pIC50 (Splenocyte [3]) was under 4.30.

In the case of `COc1cc(O)c2c(c1)/C=C/C[C@H](O)[C@@H](O)C(=O)CCC[C@H](C)OC2=O`, the pIC50 (Splenocyte [1]) was under 4.30, the Activity (Splenocyte [2]) was “Non-Toxic” and the pIC50 (Splenocyte [3]) was under 4.30.

For `COc1cc(O)c2c(c1)/C=C/C[C@H](O)C(=O)CCCC[C@H](C)OC2=O`, the pIC50 (Splenocyte [1]) was under 4.30, the Activity (Splenocyte [2]) was “Non-Toxic” and the pIC50 (Splenocyte [3]) was under 4.30.

`COc1c(C)c2c(c(O)c1C/C=C(\C)CCC(=O)OCCN1CCOCC1)C(=O)OC2` [MYCOPHENOLATE MOFETIL] was tested, and the pIC50 (Splenocyte [1]) was 6.30.

In the case of `COc1cc(O)c2c(c1)[C@H]1O[C@@H]1C[C@H](O)[C@H](O)C(=O)CCC[C@H](C)OC2=O`, the pIC50 (Splenocyte [1]) was 5.07, the Activity (Splenocyte [2]) was “Non-Toxic” and the pIC50 (Splenocyte [3]) was 5.09.

With `C[C@H]1C/C=C/[C@@H](O)[C@@H](O)CC/C=C/c2cc(O)cc(O)c2C(=O)O1` [AIGIALOMYCIN D] the pIC50 (Splenocyte [1]) was 4.74, the Activity (Splenocyte [2]) was “Non-Toxic” and the pIC50 (Splenocyte [3]) was 4.79.

In the case of `C[C@H](O)CCC[C@@H]1CCCC(=O)Cc2cc(O)cc(O)c2C(=O)O1`, the pIC50 (Splenocyte [1]) was under 4.30, the Activity (Splenocyte [2]) was “Non-Toxic” and the pIC50 (Splenocyte [3]) was under 4.30.

`C[C@H](O)C[C@@H]1CCCCCc2cc(O)cc(O)c2C(=O)O1` was tested, and the pIC50 (Splenocyte [1]) was under 4.30, the Activity (Splenocyte [2]) was “Non-Toxic” and the pIC50 (Splenocyte [3]) was under 4.30.

With `COc1cc(O)c2c(c1)/C=C/C[C@H](O)[C@H](O)C(=O)CCC[C@H](C)OC2=O` the Activity (T-cell [4]) was 4.6%, the Activity (T-cell [5]) was 59.1% and the pIC50 (Splenocyte [1]) was 5.19. For the same molecule, the Activity (T-cell [6]) was 5.8%, the Activity (Splenocyte [2]) was “Non-Toxic” and the Activity (T-cell [7]) was 26.5%. For the same molecule, the Activity (T-cell [8]) was 32.9%, the Activity (T-cell [9]) was 9.1% and the pIC50 (Splenocyte [3]) was 5.13.

For `COc1cc(O)c2c(c1)/C=C/C[C@H](O)[C@@H](O)[C@@H](O)CCC[C@H](C)OC2=O`, the pIC50 (Splenocyte [1]) was under 4.30, the Activity (Splenocyte [2]) was “Non-Toxic” and the pIC50 (Splenocyte [3]) was under 4.30.

For `COc1cc(O)c2c(c1)/C=C/CCC(=O)[C@H](O)CCC[C@H](C)OC2=O`, the pIC50 (Splenocyte [1]) was 4.56, the Activity (Splenocyte [2]) was “Non-Toxic” and the pIC50 (Splenocyte [3]) was 4.60.

For `C[C@H](O)C/C=C/[C@@H]1CCCC(=O)Cc2cc(O)cc(O)c2C(=O)O1`, the Activity (T-cell [10]) was 12.1%, the pIC50 (Splenocyte [1]) was 4.99 and the Activity (T-cell [11]) was “Dose-Dependent Effect”. The Activity (T-cell [12]) was “Dose-Dependent Effect”, the Activity (Splenocyte [2]) was “Non-Toxic” and the Activity (T-cell [13]) was “Dose-Dependent Effect”. The Activity (T-cell [14]) was 55.8%, the Activity (T-cell [15]) was “Dose-Dependent Effect” and the Activity (T-cell [16]) was “Dose-Dependent Effect”. For the same molecule, the Activity (T-cell [17]) was 37.2%, the Activity (T-cell [18]) was 26.2% and the pIC50 (Splenocyte [3]) was 4.97. For the same molecule, the Activity (T-cell [19]) was “Dose-Dependent Effect”, the Activity (T-cell [20]) was “Dose-Dependent Effect” and the Activity (T-cell [21]) was 11%. The Activity (T-cell [22]) was 8.9% and the Activity (T-cell [23]) was “Dose-Dependent Effect”.

`COc1cc(O)c2c(c1)/C=C/C[C@@H](O)[C@@H](O)C(=O)CCC[C@H](C)OC2=O` was tested, and the pIC50 (Splenocyte [1]) was 4.84, the Activity (Splenocyte [2]) was “Non-Toxic” and the pIC50 (Splenocyte [3]) was 4.78.

`COc1cc(O)c2c(c1)/C=C/C[C@H](O)[C@H](O)C(=O)C[C@H](O)C[C@H](C)OC2=O` was tested, and the pIC50 (Splenocyte [1]) was 4.66, the Activity (Splenocyte [2]) was “Non-Toxic” and the pIC50 (Splenocyte [3]) was 4.73.

With `COc1cc(O)c2c(c1)/C=C/C[C@@H](O)[C@@H](O)C(=O)/C=C/C[C@H](C)OC2=O` the pIC50 (Splenocyte [1]) was 4.93, the Activity (Splenocyte [2]) was “Non-Toxic” and the pIC50 (Splenocyte [3]) was 4.82.

For `COc1cc(O)c2c(c1)/C=C/C[C@@H](O)[C@H](O)C(=O)/C=C/C[C@H](C)OC2=O`, the pIC50 (Splenocyte [1]) was 5.17, the Activity (Splenocyte [2]) was “Non-Toxic” and the pIC50 (Splenocyte [3]) was 4.94.
